Experiments:
[1] = tested on: cats diagnosed with hyperthyroidism; experiment: Serum total T4 in hyperthyroid cats, six-week study (Example 1); assay type: in vivo, cat
Description: (§1) A group of five cats diagnosed with hyperthyroidism was fed food B for six weeks. Another five cats diagnosed with hyperthyroidism were given 2.5 mg methimazole orally once a day for six weeks while they were fed food B. Eight cats diagnosed with hyperthyroidism were given 2.5 mg methimazole orally once a day for six weeks while they were fed a commercially available cat food. The thyroid hormone profiles and serum chemistries of all cats were measured at zero, two, four, and six weeks.

[2] = Serum creatinine in hyperthyroid cats, six-week study (Example 1); assay type: in vivo, cat
Description: as §1, with “Food B1 and food B2 were mixed in a 1:1 ratio, thus resulting in food B. A group” for “A group”

[3] = cats diagnosed with hyperthyroidism, six weeks, methimazole 2.5 mg orally once a day where given

Cn1cc[nH]c1=S [Methimazole, methimazole]
total T4 concentration relative to the normal total T4 concentration range ([1]; after six weeks): did not reach the normal total T4 concentration range
Change in Serum Total T4 Levels [1, 3]: -20.3 nmol/L
serum creatinine concentration relative to the normal creatinine concentration range ([2]; after six weeks, normal range 0.8-1.8 mg/dL): a bit higher than the 0.8-1.8 mg/dL normal creatinine concentration range
Change in Serum Creatinine Levels [2, 3]: +0.46 mg/dL
